PMC6331991, “Anemarrhena asphodeloides Non-Steroidal Saponin Components Alter the Pharmacokinetic Profile of Its Steroidal Saponins in Rat” (Molecules, 2015)
Read-outs that look alike come from different tables or passages of the source.

How the values were obtained:
[1] = Pharmacokinetic study of four steroidal saponins in rat plasma after oral administration of A. asphodeloides fractions (UPLC-MS/MS); format: in vivo, Sprague-Dawley rats; details: rat, in vivo, po; for AUC(0-t) / half-life / Cmax / Tmax: male, Sprague-Dawley, 400 mg/kg
Method: The dried A. asphodeloides were chopped into slices before using. The A. asphodeloides was immersed in water (1:10, w/v) and extracted twice by refluxing for 2 h. After filtration, the supernatant was condensed to a certain volume under reduced pressure, and 95% ethanol was added to the water extract filtrates until the concentration of ethanol was 80%. The precipitate was filtered as the macromolecular fraction (MF), the ethanol supernatant was concentrated under reduced pressure to a certain volume under vacuum and then purified by gradient elution with water, 40% ethanol and 70% ethanol from an AB-8 MARO porous resin column and then the water-eluted fraction was combined with the 40% ethanol-eluted fraction as the small molecule fraction (SF) and the 70% ethanol eluted fraction was the A. asphodeloides saponins extract (ASE). All of the residues were lyophilized and the resulting dry powder was stored at 4 °C before usage. The contents of four steroidal saponins in ASE dry powder were measured quantitatively by the external standard method using the same chromatography conditions as described above. The contents of timosaponin BII, anemarsaponin BIII, timosaponin AIII and timosaponin E1 in ASE were 429.12, 89.81, 59.13 and 41.25 mg/g, respectively.
Frozen plasma samples were unfrozen at room temperature and treated as follows: to each 200 µL plasma sample, 20 µL of IS (920 ng/mL ginsenoside Re) working solution and 600 µL of acetonitrile were added. After vortexing for 2 min and centrifugation at 13,000 rpm at 4 °C for 10 min the supernatant was transferred into a new tube and evaporated to dryness in a rotary evaporator at 39 °C and the residue was reconstituted in 100 µL of 0.1% formic acid–acetonitrile (50:50, v/v), vortexed for 2 min and centrifuged at 13,000 rpm at 4 °C for 10 min. The supernatant was transferred to an autosampler vial and an aliquot of 2 μL was injected onto the UPLC-MS/MS system for analysis.
Male Sprague-Dawley rats (250–280 g) were obtained from the Shanghai Slac Laboratory Animal Co., Ltd. (Shanghai, China). All animals were kept in an environmentally controlled breeding room (temperature: 20–25 °C, humidity: 55%–65%) for 1 week before the experiments started. Animal welfare and experimental procedures were strictly in accordance with the ethical norms of the Nanjing University of Chinese Medicine. All rats were fasted for 12 h with free access to water prior to the experiments, twenty-four rats were divided into four groups and then were given a single dose of ASE, ASE-SF, AS-MF, AS-M-SF. A 40 mg/mL ASE (the amount of MF, SF added to group AS-MF, ASE-SF, AS-M-SF were based on the proportion extracted from A. asphodeloides) aqueous solution in each group was administered orally at a dose of 400 mg/kg, which contained 171.61, 35.92, 23.62, 16.53 mg/kg of timosaponin BII, anemarsaponin BIII, timosaponin AIII, timosaponin E1, respectively.
About 400 μL blood samples were collected from venipuncture before intragastric gavage and at 0.083, 0.25, 0.5, 1, 1.5, 2, 4, 6, 8, 10, 12, 24 h after a single oral administration. The blood samples were immediately transferred to heparinized tubes and centrifuged at 3000 rpm for 10 min, and the supernatant was transferred into 2.0 mL Eppendorf tubes and stored at −80 °C prior to analysis. Blank plasma was obtained from the rat without oral administration and was used to investigate the assay development and validation.
To calculate the pharmacokinetic parameters of analytes in different group, concentrations–time dada were analyzed by DAS 3.2 software (Mathematical Pharmacology Professional Committee of China, Shanghai, China, 2011). Data were measured as the mean ± standard deviation (S.D.) with triplicate measurements. The identification of significances between different groups was executed with Student’s t-test. A p value < 0.05 was considered statistically significant.

[2] = design: method as in PMID 20686523, PMID 23542670; details: plasma concentration peak; cited from earlier work

Question: With `CC1=C(CCC(C)COC2OC(CO)C(O)C(O)C2O)OC2CC3C4CCC5CC(OC6OC(CO)C(O)C(O)C6OC6OC(CO)C(O)C(O)C6O)CCC5(C)C4CCC3(C)C12` (centres unmarked) [Anemarsaponin BIII, anemarsaponin BIII] as the compound, how does the AUC(0-t) [1] read?
Answer: Its AUC(0-t) is 551 ± 75 ng·h/mL.

Question: What about the half-life [1] of the same compound?
Answer: Its half-life is 7.63 ± 3.37 h.

Question: And the AUC(0-t) ([1]; AUC0–t)?
Answer: Its AUC(0-t) is 257 ± 20.4 ng·h/mL.

Question: And the Cmax [1]?
Answer: Its Cmax is 34.5 ± 3.75 ng/mL.

Question: What about the half-life ([1]; T1/2) of the same compound?
Answer: The half-life was 2.75 ± 1.14 h.

Question: What about the Tmax [1] of the same compound?
Answer: Its Tmax is 3.75 ± 1.78 h.

Question: What about the T1/2 [1] of the same compound?
Answer: Its T1/2 is “no obvious difference”.

Question: And the “shape of plasma concentration-time curve” value [1]?
Answer: The value was “double peak”.

Question: With `CC(CCC1(O)OC2C(O)C3C4CCC5CC(OC6OC(CO)C(O)C(O)C6OC6OC(CO)C(O)C(O)C6O)CCC5(C)C4CCC3(C)C2C1C)COC1OC(CO)C(O)C(O)C1O` (centres unmarked) [Timosaponin E1, timosaponin E1] as the compound, how does the AUC(0-t) [1] read?
Answer: Its AUC(0-t) is 286 ± 36.8 ng·h/mL.

Question: And the half-life [1]?
Answer: The half-life was 8.8 ± 3.83 h.

Question: What about the AUC(0-t) ([1]; AUC0–t) of the same compound?
Answer: The AUC(0-t) was 115 ± 5.35 ng·h/mL.

Question: What about the Cmax [1] of the same compound?
Answer: The Cmax was 18.9 ± 1.54 ng/mL.

Question: And the half-life ([1]; T1/2)?
Answer: The half-life was 2.95 ± 0.4 h.

Question: What about the Tmax [1] of the same compound?
Answer: Its Tmax is 4 h.

Question: What about the T1/2 [1] of the same compound?
Answer: Its T1/2 is “no obvious difference”.

Question: And the “shape of plasma concentration-time curve” value [1]?
Answer: Its value is “double peak”.

Question: With `C[C@H]1CC[C@@]2(OC1)O[C@H]1C[C@H]3[C@@H]4CC[C@@H]5C[C@@H](O)CC[C@]5(C)[C@H]4CC[C@]3(C)[C@H]1[C@@H]2C` [sarsasapogenin] as the compound, how does the “shape of plasma concentration-time curve” value [2] read?
Answer: Its value is “single plasma concentration peak”.
